{"source": "paper PMC7738871", "about": "“Covalent modification of Keap1 at Cys77 and Cys434 by pubescenoside a suppresses oxidative stress-induced NLRP3 inflammasome activation in myocardial ischemia-reperfusion injury” (Theranostics, 2021)", "key": {"Keap1 WT": {"biological_target": "T1, Keap1 WT (Homo sapiens, UniProt Q14145)", "T1 construct": "His (N); made in house; host or cells: E. coli BL21 (DE3)", "test": "ITC titration of PBA with Keap1-WT", "format": "binding", "conditions": "25 ℃", "protocol": "(§1) The Keap1 was amplified by PCR using a human cDNA library, and was subcloned into the vector pET28-TEV, which contained one tobacco etch virus (TEV) protease cleavage site at the upstream multiple cloning site. The protein was expressed in E. coli BL21 (DE3) cells and incubated at 37 °C until the OD600 value reached 0.6, using 0.2 mM isopropyl β-D-1-thiogalactopyranoside (IPTG) overnight induction at 18 °C. The cells were isolated by centrifugation, resuspended in ice-cold lysis buffer and lysed by cryogenic overpressure cell breaker at 1,200 psi. The lysates were centrifuged for 60 min at 14,000 rpm to obtain the supernatant. Gravity flow purification of Keap1 protein was obtained at room temperature using 1 mL of Ni-NTA and eluted in buffer containing 250 mM imidazole, followed by 1 mL of HiTrap QHP for the second step purification. The final protein was purified and validated by Superdex 200 10/300GL resin.\n(§2) Isothermal calorimetry (ITC) titration experiments were performed at 25 °C. WT Keap1, Keap1 mutants and PBA were dissolved in binding buffer (40 mM Tris-HCl pH 8.0, 250 mM NaCl). In a typical experiment, 60 μL of PBA (1 mM) was injected 19 times at 2-min intervals from a stirring syringe into the sample cell containing 300 μL of WT protein or mutants (30 μM). The first injection was 0.4 μL of PBA, and the subsequent 18 injections were 2 μL each time. The site-binding models were determined by using MicroCal Origin software."}, "Keap1 C23S": {"biological_target": "T2, Keap1 C23S (Homo sapiens, UniProt Q14145, C23S)", "T2 construct": "His (N); made in house; host or cells: E. coli BL21 (DE3)", "T2 sequence (Q14145 whole entry C23S)": "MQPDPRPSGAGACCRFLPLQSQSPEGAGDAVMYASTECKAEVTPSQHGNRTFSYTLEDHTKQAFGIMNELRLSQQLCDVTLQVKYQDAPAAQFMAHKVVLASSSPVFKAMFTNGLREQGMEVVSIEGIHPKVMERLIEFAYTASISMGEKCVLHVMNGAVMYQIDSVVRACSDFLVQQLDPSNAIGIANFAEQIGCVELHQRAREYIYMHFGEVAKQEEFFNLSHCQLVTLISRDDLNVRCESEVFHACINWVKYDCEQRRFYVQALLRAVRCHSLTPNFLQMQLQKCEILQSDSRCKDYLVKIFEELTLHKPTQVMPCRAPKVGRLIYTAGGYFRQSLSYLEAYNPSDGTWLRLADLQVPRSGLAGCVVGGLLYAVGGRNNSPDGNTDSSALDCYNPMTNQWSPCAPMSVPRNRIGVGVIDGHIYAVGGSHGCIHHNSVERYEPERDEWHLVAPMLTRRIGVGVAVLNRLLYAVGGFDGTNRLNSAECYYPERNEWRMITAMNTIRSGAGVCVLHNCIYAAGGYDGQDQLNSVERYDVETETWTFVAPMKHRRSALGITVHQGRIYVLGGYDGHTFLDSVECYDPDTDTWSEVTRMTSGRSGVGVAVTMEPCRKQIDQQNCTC", "test": "ITC titration of PBA with Keap1-C23S", "format": "binding", "conditions": "25 ℃", "protocol": "as §1\n(§3) The mutant plasmid DNA was obtained by PCR. The PCR products were cleaved by DpnI restriction enzymes. The restriction endonuclease-cleaved mixture was subsequently transformed into E. coli DH5α. Colonies were evaluated by colony PCR and sequenced. The mutant plasmid was transformed into E. coli BL21 (DE3) after successful sequencing. The steps for expression and purification of all recombinants were described above.\nas §2"}, "Keap1 C77S": {"biological_target": "T3, Keap1 C77S (Homo sapiens, UniProt Q14145, C77S)", "T3 construct": "His (N); made in house; host or cells: E. coli BL21 (DE3)", "T3 sequence (Q14145 whole entry C77S)": "as the sequence (Q14145 whole entry C23S) above, with S23C, C77S counted along it", "test": "ITC titration of PBA with Keap1-C77S", "format": "binding", "conditions": "25 ℃", "protocol": "as §1, §3, §2"}, "Keap1 C434S": {"biological_target": "T4, Keap1 C434S (Homo sapiens, UniProt Q14145, C434S)", "T4 construct": "His (N); made in house; host or cells: E. coli BL21 (DE3)", "T4 sequence (Q14145 whole entry C434S)": "as the sequence (Q14145 whole entry C23S) above, with S23C, C434S counted along it", "test": "ITC titration of PBA with Keap1-C434S", "format": "binding", "conditions": "25 ℃", "protocol": "as §1, §3, §2"}, "RAW264.7 macrophages": {"system": "RAW264.7 macrophages", "test": "MTT cytotoxicity, RAW264.7", "format": "cell-based", "conditions": "RAW264.7, under 240 μM, 48 h", "protocol": "(§4) Cell viability was determined by MTT assays. PBA was prepared to a stock solution dissolved in dimethyl sulfoxide (DMSO). RAW264.7, H9c2 cells, primary mouse cardiomyocytes were treated with different doses of PBA, and DMSO only as control for 48 h for the toxicity. In addition, H9c2 cells or primary mouse cardiomyocytes were treated with the indicated doses of PBA, diazoxide as positive control, DMSO only as control, then cultured with or without OGD/R treatment. At the end of the experiments, MTT was added into each well at the concentration of 0.5 mg/ml, and incubated at 37 °C for 4 h. After removal of the supernatant, 150 μL of DMSO was added to solubilize the formazan products. And the solution was measured at the absorbance of 490 nm by a spectrophotometer (Thermo Fisher Scientific, MA, USA). The results of the MTT assay in all groups were normalized to the control group with DMSO only treatment."}, "H9c2 cells": {"system": "H9c2 cells", "test": "MTT cytotoxicity, H9c2", "format": "cell-based, rat", "conditions": "under 240 μM, 48 h", "protocol": "as §4"}, "Nrf2": {"system": "Nrf2", "test": "Nrf2 nuclear translocation", "format": "cell-based, rat", "conditions": "PBA for 6 h", "protocol": "Total protein was isolated from H9c2 cells, primary mouse cardiomyocytes, RAW264.7 cells and heart tissue using 1X RIPA buffer containing phosphatase and proteinase inhibitors at 4 °C. After measurement of the concentration, the cell lysates were separated by sodium dodecyl sulphate polyacrylamide gel electrophoresis (SDS-PAGE) and transferred to polyvinylidene fluoride (PVDF) membranes. The membranes were blocked in Tris-buffered saline-Tween 20 (TBST) buffer with 5% BSA for 1 h and incubated with primary antibodies (1:1000 dilution) overnight at 4 °C. After the membranes was washed by TBST buffer for three times, they were incubated with horseradish peroxidase (HRP)-conjugated secondary mouse or rabbit antibodies (1:3,000 dilution) at room temperature (RT) for 1.5 h and then detected by SuperEnhanced chemiluminescence (ECL) reaction reagents (GBCBIO Technologies Inc., Guangzhou, Guangdong, China). […] After letting the membranes stand for 1-2 min, the bands of the respective proteins were detected with the exposure time of 10 ~60 s.\nAccording to previous experiences, Nrf2 nucleus translocation could be detected at 6 h. […] After several washes with PBS, the bound antibodies were detected by Alexa Fluor 594-conjugated goat anti-rabbit or Alexa Fluor 488-conjugated goat anti-mouse IgG secondary antibody at RT for 1 h. […]"}, "HO-1 and NQO1": {"system": "HO-1 and NQO1", "test": "HO-1 and NQO1 protein expression, H9c2", "format": "cell-based, rat", "conditions": "H9c2 cells, 24 h, dose-dependent", "protocol": "Total protein was isolated from H9c2 cells, primary mouse cardiomyocytes, RAW264.7 cells and heart tissue using 1X RIPA buffer containing phosphatase and proteinase inhibitors at 4 °C. After measurement of the concentration, the cell lysates were separated by sodium dodecyl sulphate polyacrylamide gel electrophoresis (SDS-PAGE) and transferred to polyvinylidene fluoride (PVDF) membranes. The membranes were blocked in Tris-buffered saline-Tween 20 (TBST) buffer with 5% BSA for 1 h and incubated with primary antibodies (1:1000 dilution) overnight at 4 °C. After the membranes was washed by TBST buffer for three times, they were incubated with horseradish peroxidase (HRP)-conjugated secondary mouse or rabbit antibodies (1:3,000 dilution) at room temperature (RT) for 1.5 h and then detected by SuperEnhanced chemiluminescence (ECL) reaction reagents (GBCBIO Technologies Inc., Guangzhou, Guangdong, China). In brief, drop evenly the ECL working liquid onto the membrane at the ratio of 1 mL ECL working liquid and 10 cm^2 of membrane. After letting the membranes stand for 1-2 min, the bands of the respective proteins were detected with the exposure time of 10 ~60 s."}}, "note": "pKd: −log10 of the molar value.", "data": [{"compound": "C=C(COC(=O)C=Cc1ccc(O)c(O)c1)C(O)COC1OC(CO)C(O)C(O)C1O", "note": "(centres unmarked) [PBA, pubescenoside A]", "values": [{"measurement": "pKd", "setting": "Keap1 WT", "result": 5.58}, {"measurement": "T△S", "setting": "Keap1 WT", "result": "4.31 ± 0.00", "unit": "kcal/mol"}, {"measurement": "△G", "setting": "Keap1 WT", "result": "-7.62 ± 0.00", "unit": "kcal/mol"}, {"measurement": "△H", "setting": "Keap1 WT", "result": "-3.31 ± 0.199", "unit": "kcal/mol"}, {"measurement": "pKd", "setting": "Keap1 C23S", "result": 5.01}, {"measurement": "T△S", "setting": "Keap1 C23S", "result": "3.22 ± 0.00", "unit": "kcal/mol"}, {"measurement": "△G", "setting": "Keap1 C23S", "result": "-6.84 ± 0.00", "unit": "kcal/mol"}, {"measurement": "△H", "setting": "Keap1 C23S", "result": "-3.62 ± 0.241", "unit": "kcal/mol"}, {"measurement": "pKd", "setting": "Keap1 C77S", "result": 4.71}, {"measurement": "T△S", "setting": "Keap1 C77S", "result": "0.78 ± 0.00", "unit": "kcal/mol"}, {"measurement": "△G", "setting": "Keap1 C77S", "result": "-6.43 ± 0.00", "unit": "kcal/mol"}, {"measurement": "△H", "setting": "Keap1 C77S", "result": "-5.65 ± 0.866", "unit": "kcal/mol"}, {"measurement": "pKd", "setting": "Keap1 C434S", "result": 4.86}, {"measurement": "T△S", "setting": "Keap1 C434S", "result": "1.87 ± 0.00", "unit": "kcal/mol"}, {"measurement": "△G", "setting": "Keap1 C434S", "result": "-6.63 ± 0.00", "unit": "kcal/mol"}, {"measurement": "△H", "setting": "Keap1 C434S", "result": "-4.76 ± 0.367", "unit": "kcal/mol"}, {"measurement": "cell toxicity (MTT)", "setting": "RAW264.7 macrophages", "result": "did not exhibit any cell toxicity"}, {"measurement": "cell toxicity (MTT)", "setting": "H9c2 cells", "result": "did not exhibit any cell toxicity"}, {"measurement": "Nrf2 translocation into nucleus", "setting": "Nrf2", "result": "significantly promoted"}, {"measurement": "HO-1 and NQO1 expression at the protein level", "setting": "HO-1 and NQO1", "result": "increased"}]}]}
